Results as given in patent US10710996B2, “Pyrido-azaheterecydic compound and preparation method and use thereof” (SHANGHAI INSTITUTE OF MATERIA MEDICA, CHINESE ACADEMY OF …, priority 2015, dated 2020).
Where two headings read alike, the source gives them in different places.

Columns and labels:
[1] = molecular target: Flt-1 (Homo sapiens, UniProt P17948); assay: Tyrosine kinase inhibition rate (ELISA), Flt-1; format: biochemical; conditions: read-out: Inhibtion rate (%) Flt-1
[2] = molecular target: PDGFR-α (Homo sapiens, UniProt P16234); assay: Tyrosine kinase inhibition rate (ELISA), PDGFR-α; format: biochemical; conditions: read-out: Inhibtion rate (%) PDGFR-α
[3] = molecular target: PDGFR-β (Homo sapiens, UniProt P09619); assay: Tyrosine kinase inhibition rate (ELISA), PDGFR-β; format: biochemical; conditions: read-out: Inhibtion rate (%) PDGFR-β
PDGFR-β, sequence (P09619 33-1106, species assumed): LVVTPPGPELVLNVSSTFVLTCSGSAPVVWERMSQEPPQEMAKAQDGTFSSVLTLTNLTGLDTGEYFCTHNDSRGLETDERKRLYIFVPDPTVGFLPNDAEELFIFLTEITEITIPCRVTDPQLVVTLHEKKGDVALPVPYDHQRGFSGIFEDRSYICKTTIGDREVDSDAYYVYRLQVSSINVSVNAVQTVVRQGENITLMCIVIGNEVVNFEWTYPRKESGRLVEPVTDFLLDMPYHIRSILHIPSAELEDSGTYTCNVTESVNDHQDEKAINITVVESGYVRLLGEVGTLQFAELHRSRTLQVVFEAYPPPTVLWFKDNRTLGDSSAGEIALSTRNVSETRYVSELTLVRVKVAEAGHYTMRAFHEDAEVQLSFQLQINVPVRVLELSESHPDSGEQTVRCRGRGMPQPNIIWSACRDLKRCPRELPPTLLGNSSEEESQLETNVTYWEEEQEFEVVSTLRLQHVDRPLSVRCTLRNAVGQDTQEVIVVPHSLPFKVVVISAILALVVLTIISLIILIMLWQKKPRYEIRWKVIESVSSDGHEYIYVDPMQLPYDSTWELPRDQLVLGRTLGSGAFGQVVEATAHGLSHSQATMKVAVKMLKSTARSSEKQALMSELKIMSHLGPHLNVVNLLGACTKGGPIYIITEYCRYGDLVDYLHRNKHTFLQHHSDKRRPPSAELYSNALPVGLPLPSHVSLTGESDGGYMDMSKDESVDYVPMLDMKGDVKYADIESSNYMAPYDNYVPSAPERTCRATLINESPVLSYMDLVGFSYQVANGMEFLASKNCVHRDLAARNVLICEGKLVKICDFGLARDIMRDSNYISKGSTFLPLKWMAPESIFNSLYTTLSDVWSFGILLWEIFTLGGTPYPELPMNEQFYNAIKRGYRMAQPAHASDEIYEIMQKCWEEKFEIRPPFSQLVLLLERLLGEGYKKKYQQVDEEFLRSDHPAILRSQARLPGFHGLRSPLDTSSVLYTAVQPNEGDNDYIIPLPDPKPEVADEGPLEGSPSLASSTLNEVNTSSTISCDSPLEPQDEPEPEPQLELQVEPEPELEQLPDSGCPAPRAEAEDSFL

[4] = molecular target: RET (Homo sapiens, UniProt P07949); assay: Tyrosine kinase inhibition rate (ELISA), RET; format: biochemical; conditions: read-out: Inhibtion rate (%) RET
RET, sequence (P07949 29-1114, species assumed): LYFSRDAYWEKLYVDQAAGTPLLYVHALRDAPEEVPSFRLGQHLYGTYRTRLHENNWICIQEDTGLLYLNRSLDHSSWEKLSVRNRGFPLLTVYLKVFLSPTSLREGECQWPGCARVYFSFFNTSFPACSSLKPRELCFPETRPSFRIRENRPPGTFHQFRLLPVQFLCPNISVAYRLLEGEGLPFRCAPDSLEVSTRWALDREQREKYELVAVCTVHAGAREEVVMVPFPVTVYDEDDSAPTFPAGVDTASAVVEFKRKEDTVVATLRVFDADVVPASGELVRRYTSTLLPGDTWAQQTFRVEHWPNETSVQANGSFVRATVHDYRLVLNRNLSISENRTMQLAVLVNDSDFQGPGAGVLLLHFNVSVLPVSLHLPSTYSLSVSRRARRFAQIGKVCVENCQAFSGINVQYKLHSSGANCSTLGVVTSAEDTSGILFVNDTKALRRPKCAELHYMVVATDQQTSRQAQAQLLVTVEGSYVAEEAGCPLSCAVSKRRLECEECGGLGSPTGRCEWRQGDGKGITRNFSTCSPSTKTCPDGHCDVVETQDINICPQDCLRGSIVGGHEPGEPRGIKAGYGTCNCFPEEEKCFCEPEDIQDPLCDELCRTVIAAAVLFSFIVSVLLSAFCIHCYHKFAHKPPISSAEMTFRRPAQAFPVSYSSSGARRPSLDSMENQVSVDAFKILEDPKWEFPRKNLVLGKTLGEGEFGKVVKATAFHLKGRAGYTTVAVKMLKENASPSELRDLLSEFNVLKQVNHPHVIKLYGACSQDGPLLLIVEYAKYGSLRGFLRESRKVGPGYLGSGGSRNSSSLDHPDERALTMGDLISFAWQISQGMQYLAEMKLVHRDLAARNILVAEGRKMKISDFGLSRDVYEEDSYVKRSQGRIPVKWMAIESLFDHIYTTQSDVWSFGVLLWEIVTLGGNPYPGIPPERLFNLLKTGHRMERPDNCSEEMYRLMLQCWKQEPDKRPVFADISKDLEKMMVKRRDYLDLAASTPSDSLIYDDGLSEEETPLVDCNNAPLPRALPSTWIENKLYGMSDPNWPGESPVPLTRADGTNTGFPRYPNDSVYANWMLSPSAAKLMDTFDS

[5] = molecular target: IGF1R (Homo sapiens, UniProt P08069); assay: Tyrosine kinase inhibition rate (ELISA), IGF1R; format: biochemical; conditions: read-out: Inhibtion rate (%) IGF1R
IGF1R, sequence (P08069 31-1367, species assumed): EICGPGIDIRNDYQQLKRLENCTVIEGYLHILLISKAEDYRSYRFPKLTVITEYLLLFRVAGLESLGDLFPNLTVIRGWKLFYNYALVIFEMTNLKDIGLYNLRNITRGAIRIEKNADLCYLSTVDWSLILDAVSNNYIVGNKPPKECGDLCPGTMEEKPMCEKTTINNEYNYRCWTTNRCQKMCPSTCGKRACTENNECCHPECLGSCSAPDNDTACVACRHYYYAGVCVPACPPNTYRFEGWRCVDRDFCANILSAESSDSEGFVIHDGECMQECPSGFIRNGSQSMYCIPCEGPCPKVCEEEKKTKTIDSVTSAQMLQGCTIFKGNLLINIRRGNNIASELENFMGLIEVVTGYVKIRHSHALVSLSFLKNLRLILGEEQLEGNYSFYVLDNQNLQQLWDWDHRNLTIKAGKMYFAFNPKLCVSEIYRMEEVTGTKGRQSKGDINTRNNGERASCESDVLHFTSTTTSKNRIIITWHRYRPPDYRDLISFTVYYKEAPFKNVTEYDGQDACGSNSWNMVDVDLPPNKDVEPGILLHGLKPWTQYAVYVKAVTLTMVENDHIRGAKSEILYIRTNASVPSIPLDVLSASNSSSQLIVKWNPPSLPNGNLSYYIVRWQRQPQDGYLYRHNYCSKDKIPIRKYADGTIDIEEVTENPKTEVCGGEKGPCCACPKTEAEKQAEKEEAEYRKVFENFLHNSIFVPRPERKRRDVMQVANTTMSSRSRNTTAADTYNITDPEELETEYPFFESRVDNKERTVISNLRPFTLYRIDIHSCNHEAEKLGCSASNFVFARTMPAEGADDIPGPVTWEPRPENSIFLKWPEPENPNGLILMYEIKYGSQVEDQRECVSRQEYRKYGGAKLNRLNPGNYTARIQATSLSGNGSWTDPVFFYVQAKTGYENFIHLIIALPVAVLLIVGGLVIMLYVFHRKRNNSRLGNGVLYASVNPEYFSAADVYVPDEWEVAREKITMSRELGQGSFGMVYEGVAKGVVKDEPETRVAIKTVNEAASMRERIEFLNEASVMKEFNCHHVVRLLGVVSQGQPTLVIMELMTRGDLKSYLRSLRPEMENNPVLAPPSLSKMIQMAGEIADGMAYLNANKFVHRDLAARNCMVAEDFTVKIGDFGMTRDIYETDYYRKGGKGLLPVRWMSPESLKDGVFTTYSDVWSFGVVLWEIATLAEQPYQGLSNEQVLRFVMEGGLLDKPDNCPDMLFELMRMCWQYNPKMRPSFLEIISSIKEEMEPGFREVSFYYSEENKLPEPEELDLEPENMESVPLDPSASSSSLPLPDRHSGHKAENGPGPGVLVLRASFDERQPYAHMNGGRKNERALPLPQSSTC

[6] = molecular target: FGFR1 (Homo sapiens, UniProt P11362); assay: Tyrosine kinase inhibition rate (ELISA), FGFR1; format: biochemical; conditions: 1 μM
FGFR1, sequence (P11362 22-822, species assumed): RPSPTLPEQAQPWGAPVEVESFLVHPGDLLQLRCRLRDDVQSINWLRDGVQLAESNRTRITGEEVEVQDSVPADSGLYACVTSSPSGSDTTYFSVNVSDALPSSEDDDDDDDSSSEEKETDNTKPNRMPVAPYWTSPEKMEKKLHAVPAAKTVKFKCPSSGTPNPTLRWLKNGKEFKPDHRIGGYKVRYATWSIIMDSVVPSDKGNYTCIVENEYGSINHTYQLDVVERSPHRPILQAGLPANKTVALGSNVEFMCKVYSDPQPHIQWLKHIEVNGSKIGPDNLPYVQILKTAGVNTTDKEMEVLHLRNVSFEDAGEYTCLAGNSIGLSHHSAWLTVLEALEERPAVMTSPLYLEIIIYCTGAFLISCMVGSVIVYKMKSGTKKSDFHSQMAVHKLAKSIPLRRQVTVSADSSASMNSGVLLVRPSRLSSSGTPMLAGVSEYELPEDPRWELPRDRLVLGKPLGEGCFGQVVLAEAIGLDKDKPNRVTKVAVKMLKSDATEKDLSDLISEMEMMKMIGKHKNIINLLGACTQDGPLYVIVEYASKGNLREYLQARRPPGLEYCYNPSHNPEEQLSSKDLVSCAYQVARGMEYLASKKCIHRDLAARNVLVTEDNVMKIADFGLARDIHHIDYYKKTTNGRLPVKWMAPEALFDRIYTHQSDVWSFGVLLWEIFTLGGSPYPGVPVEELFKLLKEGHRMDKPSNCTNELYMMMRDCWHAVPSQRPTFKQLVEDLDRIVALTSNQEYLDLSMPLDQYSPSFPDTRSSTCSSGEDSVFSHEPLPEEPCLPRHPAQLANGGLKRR

[7] = molecular target: T1, c-Met kinase (Homo sapiens, UniProt P08581); assay: Inhibitory effect on c-Met kinase activity at molecular level (ELISA); format: biochemical;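 note: recombinant c-Met kinase domain with 5 µM ATP, 1 h at 37 °C, substrate phosphorylation detected by anti-phosphotyrosine PY99 ELISA at 490 nm versus DMSO negative control, ATP-free wells as blank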
T1 construct: c-Met kinase domain recombinant protein diluted with 49 μL of the reaction buffer was added
T1 sequence (P08581 1078-1345 limits assumed): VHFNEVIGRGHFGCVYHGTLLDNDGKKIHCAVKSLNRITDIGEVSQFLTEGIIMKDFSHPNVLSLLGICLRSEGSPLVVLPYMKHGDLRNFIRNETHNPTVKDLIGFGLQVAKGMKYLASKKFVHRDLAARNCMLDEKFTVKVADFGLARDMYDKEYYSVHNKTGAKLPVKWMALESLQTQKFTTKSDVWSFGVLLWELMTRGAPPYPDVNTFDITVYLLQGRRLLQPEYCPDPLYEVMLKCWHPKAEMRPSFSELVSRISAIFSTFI
Experimental: Experiment for Preliminarily Evaluating the Inhibitory Effect on the Activity of Receptor Tyrosine Kinase c-Met at Molecular Level
After discarding the liquid in the wells, the plate was washed with T-PBS (0.1% Tween-20 in PBS) in an amount of 200 μL/well three times, each for 5 minutes. The ELISA plate was dried in an oven at 37° C. for 1-2 hours. 50 μl of adenosine triphosphate (ATP) solution diluted with reaction buffer (50 mM 4-hydroxyethylpiperazine ethanesulfonic acid (HEPES) pH 7.4, 50 mM MgCl2, 0.5 mM MnCl2, 0.2 mM Na3VO4, 1 mM dithiothreitol (DTT)) to a final concentration of 5 μM was added to each well. The compounds were diluted to an appropriate concentration with DMSO (1 μL/well) or a solution containing DMSO in a corresponding concentration (negative control well), and then c-Met kinase domain recombinant protein diluted with 49 μL of the reaction buffer was added therein to initiate the reaction, with two ATP-free control wells for each test. The plate was placed in a shaker (100 rpm) at 37° C. for reacting 1 hour, and washed with T-PBS three times. Primary antibody PY99 diluent was added in an amount of 100 μL/well to allow the reaction in a shaker at 37° C. for 0.5 hour, and then the plate was washed with T-PBS three times. Then the secondary antibody horseradish peroxidase labeled goat anti-mouse IgG diluent was added in an amount of 100 μL/well, and the plate was placed in a shaker at 37° C. for reacting 0.5 hour, and then washed with T-PBS three times. 2 mg/ml of o-phenylenediamine (OPD) coloring solution (diluted with 0.1 M citric acid-sodium citrate buffer (pH=5.4) containing 0.03% H2O2) was then added at 100 μL/well and reacted at 25° C. for 1-10 min with light blocked (ultrasound was required to dissolve OPD, the coloring solution was prepared when needed). The reaction was stopped by adding 2 M of H2SO4 in an amount of 50 μL/well, and a wavelength-adjustable microplate reader SPECTRA MAX 190 was read at 490 nm.
The inhibition rate of the sample was calculated by the following equation:

[8] = system: EBC-1 cells; assay: Inhibition of c-Met-mediated EBC-1 cell proliferation (SRB staining); format: cell-based; conditions: Homo sapiens, 72 hours treatment
Experimental: The inhibitory effect of the compounds on the growth of non-small cell cancer EBC-1 cell (a cell line in which Met is continually activated due to the amplification of MET gene, and is a Met-dependent tumor cell line) was measured by sulforhodamine B (SRB) staining assay. A certain amount of EBC-1 cells in their logarithmic growth phase were seeded in 96-well plates at 90 μL per well and cultured overnight, then 10 μL of different concentrations of compounds or solvent control were added thereto, three wells for each concentration. After treated by the compound for 72 hours, the adherent cells were removed of culture medium and fixed with 10% (w/v) trichloroacetic acid (100 μL/well) at 4° C. for 1 hr followed by rinsing with distilled water five times. After drying at room temperature, 100 μL of SRB solution (dissolved in 1% glacial acetic acid at 4 mg/mL) was added to each well to incubate and stain the cells for 15 min at room temperature, then unbound SRB was washed off with 1% glacial acetic acid for five times. After drying at room temperature, 100 μL of 10 mM Tris solution was added to each well. The optical density (OD value) at 515 nm was read on a VERSMax microplate reader. […] The experiment was repeated twice. The IC50 data was calculated as a range based on the test results of concentrations set in the initial screening test.

[9] = molecular target: ErbB4 (Homo sapiens, UniProt Q15303); assay: Tyrosine kinase inhibition rate (ELISA), ErbB4; format: biochemical; conditions: read-out: Inhibtion rate (%) ErbB4
[10] = system: human lung cancer EBC-1 xenograft tumor; assay: Growth inhibition of subcutaneous xenograft tumor of human lung cancer EBC-1 in nude mice; format: in vivo; conditions: 50 mg/kg qd/21 po
Experimental: EBC-1 cells were subcutaneously inoculated into the armpit on the right side of the nude mice in an amount of 5×10^6/mouse respectively to form xenograft tumor, which were then passaged in nude mice for three generations. Tumor tissue that was growing vigorously was cut into about 1.5 mm^3 under sterile conditions, and subcutaneously inoculated into the armpit on the right side of the nude mice, and the diameter of the xenograft tumor was measured with a vernier caliper. The diameter of the subcutaneous xenograft tumor in nude mice was measured with a vernier caliper. […] The diameter of xenograft tumor was measured twice a week and the body weight of mice was weighed during the whole experiment. The tumor volume (TV) was calculated by the following equation: TV=½×a×b^2, wherein a and b represent the length and width, respectively. The relative tumor volume (RTV) was calculated based on the measured results, and the calculation equation thereof is: RTV=Vt/V0, wherein V0 is the tumor volume measured when the mice were divided in different cages and administered (i.e., d0) and Vt is the tumor volume measured each time.

[11] = Pharmacokinetic test in rats; format: in vivo, Sprague-Dawley rats; conditions: male, Sprague-Dawley, plasma, rat; for MRT: read-out: MRT
Experimental: 14 male Sprague-Dawley rats, weigh 200-220 g, were randomly divided into 4 groups with 4/3 in each group. The rats were intragastrically and intravenously administered with compound 7S and 8S respectively. The compounds were dissolved in normal saline containing 5% of DMSO and solubilized with 5% of tween-80 (Tween 80), and the final concentration of the sample was 1 mg/ml.
The rats were fasted 12 h before the test, free drinking water. They were fed 2 h after administration.
gavage administration: 0.25 h, 0.5 h, 1.0 h, 2.0 h, 3.0 h, 4.0 h, 6.0 h, 8.0 h and 24 h after administration;
intravenous administration: 5 min, 0.25 h, 0.5 h, 1.0 h, 2.0 h, 4.0 h, 6.0 h, 8.0 h and 24 h after administration;
0.3 ml venous blood was collected from the retrobulbar venous plexus of rats at the above time point, and placed in a heparinized tube and centrifuged at 11000 rpm for 5 min. The plasma was separated and frozen in a refrigerator at −20° C.
The concentrations of the compounds in rat plasma were measured by LC/MS/MS.
Pharmacokinetic parameters after administration were calculated using the non-compartmental model of the Phoenix 1.3 software (Pharsight, U.S.A.).
Peak concentration Cmax and peak time Tmax were the measured values;
The area under the curve of the drug concentration vs. time AUC0-t value: calculated according to trapezoidal rule; AUC0-∞=AUC0-t+Ct/ke, Ct is the plasma concentration at the last measurable time point, ke is the elimination rate constant;
Elimination half-life t1/2=0.693/ke;
Average retention time MRT=AUMC/AUC.
Clearance rate CL=D/AUC0-∞;
Volume of distribution at steady state Vss=CL×MRT

[12] = po, intragastric (gavage) 10 mg/kg, mean

CCN(CC)CCNC(=O)c1c(C)[nH]c(/C=C2\C(=O)Nc3ccc(F)cc32)c1C [Su11248, reference compound]
inhibition at 1 µM [1]: 77.4%
inhibition at 1 µM [2]: 54.8%
inhibition at 1 µM [3]: 55.6%
inhibition at 1 µM [4]: 80.6%

Nc1ncnc2c1c(-c1cccc(OCc3ccccc3)c1)cn2[C@H]1C[C@@H](CN2CCC2)C1 [AEW541, reference compound]
inhibition at 1 µM [5]: 70.9%

AZD4547 [reference compound]
Inhibtion rate (%) FGFR1 [6]: 100%

O=C(Nc1ccc(F)cc1)C1(C(=O)Nc2ccc(Oc3ccnc4cc(-c5cn[nH]c5)ncc34)c(F)c2)CC1 [Compound 39S, N-(4-((7-(1H-pyrazol-4-yl)-1,6-naphthyridin-4-yl)oxy)-3-fluorophenyl)-N-(4-fluorophenyl)cyclopropyl-1,1-dicarboxamide]
IC50 [7]: 1 to 10 nM
IC50 [8]: 1 to 10 nM

CC(CN1CCOCC1)Oc1cc2nccc(Oc3ccc(NC(=O)C4(C(=O)Nc5ccc(F)cc5)CC4)cc3F)c2cn1 (stereo not shown) [Compound 26S, N-(3-fluoro-4-((7-((1-morpholinopropan-2-yl)oxy)-1,6-naphthyridin-4-yl)oxy)phenyl)-N-(4-fluorophenyl) cyclopropyl-1,1-dicarboxamide]
IC50 [7]: 10 to 100 nM
IC50 [8]: 100 to 1000 nM

CN(C)C/C=C/C(=O)Nc1cc2c(Nc3ccc(F)c(Cl)c3)ncnc2cc1O[C@H]1CCOC1 [BIBW2992, reference compound]
inhibition at 1 µM [9]: 71.1%

CN(C)c1cc2nccc(Oc3ccc(NC(=O)C4(C(=O)Nc5ccc(F)cc5)CC4)cc3F)c2cn1 [Compound 2S, N-(4-((7-(dimethylamino)-1,6-naphthyridin-4-yl)oxy)-3-fluorophenyl)-N-(4-fluorophenyl)cyclopropyl-1,1-dicarboxamide]
IC50 [7]: 1 to 10 nM
IC50 [8]: 10 to 100 nM

O=C(Nc1ccc(F)cc1)C1(C(=O)Nc2ccc(Oc3ccnc4nc(N5CCOCC5)cnc34)c(F)c2)CC1 [Compound 57S]
IC50 [7]: 10 to 100 nM
IC50 [8]: 1000 to 10000 nM

C[C@@H](Oc1cc(-c2cnn(C3CCNCC3)c2)cnc1N)c1c(Cl)ccc(F)c1Cl [PF2341066, Crizotinib, reference compound]
TV (mm^3, mean ± SD) d0 ([10]; d0): 123 ± 25 mm^3
Weight (g) d0 ([10]; d0): 17.2 g
RTV (mean ± SD) ([10]; d21): 0.00 ± 0.00
T/C (%) ([10]; d21): 0.00%
TV (mm^3, mean ± SD) d21 ([10]; d21): 0 ± 0 mm^3
Weight (g) d21 ([10]; d21): 19.6 g

O=C(Nc1ccc(F)cc1)C1(C(=O)Nc2ccc(Nc3ccnc4cc(OCCN5CCOCC5)ncc34)cc2)CC1 [Compound 13S, N-(4-fluorophenyl)-N-(4-((7-(2-morpholinoethoxy)-1,6-naphthyridin-4-yl)amino)phenyl)cyclopropyl-1,1-dicarboxamide]
IC50 [7]: 1 to 10 nM
IC50 [8]: 100 to 1000 nM

Cn1cc(-c2cc3nccc(Oc4ccc(NC(=O)C5(C(=O)Nc6ccc(F)cc6)CC5)cc4F)c3cn2)cn1 [Compound 38S, N-(3-fluoro-4-((7-(1-methyl-1H-pyrazol-4-yl)-1,6-naphthyridin-4-yl)oxy)phenyl)-N-(4-fluorophenyl)cyclopropyl-1,1-dicarboxamide]
IC50 [7]: 1 to 10 nM
IC50 [8]: 1 to 10 nM

O=C(Nc1ccc(F)cc1)C1(C(=O)Nc2ccc(Oc3ccnc4cc(-c5ccc(F)c(F)c5)ncc34)c(F)c2)CC1 [Compound 49S, N-(3-fluoro-4-((7-(3,4-difluorophenyl)-1,6-naphthyridin-4-yl)oxy)phenyl)-N-(4-fluorophenyl)cyclopropyl-1,1-dicarboxamide]
IC50 [7]: 1 to 10 nM
IC50 [8]: 10 to 100 nM

O=C(Nc1ccc(F)cc1)C1(C(=O)Nc2ccc(Oc3ccnc4ncc(OCCN5CCOCC5)nc34)c(F)c2)CC1 [Compound 67S, N-(3-fluoro-4-((2-(2-morpholinoethoxy)pyrido[2,3-b]pyrazin-8-yl)oxy)phenyl)-N-(4-fluorophenyl)cyclopropyl-1,1-dicarboxamide]
IC50 [7]: 1000 to 10000 nM
IC50 [8]: 1000 to 10000 nM

O=C(Nc1ccc(F)cc1)C1(C(=O)Nc2ccc(Oc3ccnc4cc(OCCN5CCOCC5)ncc34)cc2)CC1 [Compound 12S, N-(4-fluorophenyl)-N-(4-((7-(2-morpholinoethoxy)-1,6-naphthyridin-4-yl)oxy)phenyl)cyclopropyl-1,1-dicarboxamide]
IC50 [7]: 1 to 10 nM
IC50 [8]: 100 to 1000 nM

Cc1noc(C)c1-c1cc2nccc(Oc3ccc(NC(=O)C4(C(=O)Nc5ccc(F)cc5)CC4)cc3F)c2cn1 [Compound 45S, N-(4-((7-(3,5-dimethylisoxazol-4-yl)-1,6-naphthyridin-4-yl)oxy)-3-fluorophenyl)-N-(4-fluorophenyl) cyclopropyl-1,1-dicarboxamide]
IC50 [7]: 100 to 1000 nM
IC50 [8]: 1000 to 10000 nM

CC(C)N1CCC(n2cc(-c3cc4nccc(Oc5ccc(NC(=O)C6(C(=O)Nc7ccc(F)cc7)CC6)cc5F)c4cn3)cn2)CC1 [Compound 43S, N-(3-fluoro-4-((7-(1-(1-isopropylpiperidin-4-yl)-1H-pyrazol-4-yl)-1,6-naphthyridin-4-yl)oxy)phenyl)-N-(4-fluorophenyl)cyclopropyl-1,1-dicarboxamide]
IC50 [7]: 1 to 10 nM
IC50 [8]: 100 to 1000 nM

O=C(Nc1ccc(F)cc1)C1(C(=O)Nc2ccc(Oc3ccnc4cc(OCCCN5CCOCC5)ncc34)c(F)c2)CC1 [Compound 8S]
IC50 [7]: 1 to 10 nM
IC50 [8]: 10 to 100 nM
bioavailability ([11]; oral, gavage 10 mg/kg vs intravenous 5 mg/kg, read-out: F (absolute bioavailability)): 38.6%
AUC(0-inf) [11, 12]: 6870 ng·h/mL
AUC(0-t) [11, 12]: 6780 ng·h/mL
Cmax [11, 12]: 2060 ng/mL
Tmax [11, 12]: 1.25 h
half-life [11, 12]: 1.49 h
AUC(0-inf) ([11]; intravenous 5 mg/kg, mean): 8810 ng·h/mL
AUC(0-t) ([11]; intravenous 5 mg/kg, mean): 8770 ng·h/mL
clearance ([11]; intravenous 5 mg/kg, mean): 9.58 mL/min/kg
half-life ([11]; intravenous 5 mg/kg, mean): 1.15 h
Vd ([11]; intravenous 5 mg/kg, mean, read-out: Vss): 0.667 L/kg
MRT ([11]; iv, 5 mg/kg, intravenous 5 mg/kg, mean): 1.17 h
MRT ([11]; po, 10 mg/kg, intragastric (gavage) 10 mg/kg, mean): 2.71 h

O=C(Nc1ccc(F)cc1)C1(C(=O)Nc2ccc(Oc3ccnc4nc(N5CCNCC5)cnc34)c(F)c2)CC1 [Compound 64S, N-(4-((3-piperazinyl-pyrido[2,3-b]pyrazin-8-yl)oxy)-3-fluorophenyl)-N-(4-fluorophenyl)cyclopropyl-1,1-dicarboxamide]
IC50 [7]: 1 to 10 nM
IC50 [8]: 1000 to 10000 nM
